Laboratory results: patent US20250302775A1, “METHODS FOR THE TREATMENT OF DEPRESSION” (Autobahn Therapeutics, Inc., priority 2022, published 2025)

How the values were obtained:
[1] = system: T3-responsive target genes; test: expression of T3-responsive target genes in brain, single PO administration; type: in vivo, male C57BL/6 mouse; settings: LL-341070 about 0.1 to about 300 μg/kg, T3 about 300 μg/kg
[2] = system: T3-responsive target genes; test: expression of T3-responsive target genes in brain, rat cuprizone model; type: in vivo; settings: 21 day repeat administration; LL-341070 30 or 100 μg/kg, T3 300 μg/kg; Nanostring
[3] = target: T1, recombinant human FAAH (rhFAAH) (Homo sapiens, UniProt O00519); test: FAAH substrate evaluation: formation of acid metabolite; type: biochemical; settings: 0.5 ng/μL rhFAAH, 1 μM test compound, room temperature, pH 8.0, 0-60 minutes
T1 construct: purchased Cayman Chemical (Ann Arbor, MI, USA)
T1 sequence (O00519 1-579): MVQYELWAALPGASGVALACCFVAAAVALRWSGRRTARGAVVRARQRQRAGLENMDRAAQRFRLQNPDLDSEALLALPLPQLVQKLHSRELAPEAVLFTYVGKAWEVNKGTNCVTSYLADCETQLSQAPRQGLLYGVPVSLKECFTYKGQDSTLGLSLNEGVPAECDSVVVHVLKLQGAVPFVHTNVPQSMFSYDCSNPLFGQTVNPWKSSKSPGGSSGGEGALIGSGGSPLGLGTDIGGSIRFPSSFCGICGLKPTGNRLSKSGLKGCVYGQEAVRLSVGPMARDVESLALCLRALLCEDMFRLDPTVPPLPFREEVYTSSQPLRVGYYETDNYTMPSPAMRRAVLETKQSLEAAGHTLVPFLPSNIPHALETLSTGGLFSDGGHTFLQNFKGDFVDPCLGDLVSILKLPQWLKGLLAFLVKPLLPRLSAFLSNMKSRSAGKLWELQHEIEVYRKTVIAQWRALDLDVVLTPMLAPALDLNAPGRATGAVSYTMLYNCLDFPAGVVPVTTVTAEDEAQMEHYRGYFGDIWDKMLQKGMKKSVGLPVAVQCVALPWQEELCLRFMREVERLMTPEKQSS
Experimental: Purified recombinant human FAAH (rhFAAH) was purchased from Cayman Chemical (Ann Arbor, MI, USA). The total volume for each incubation was 400 μL containing a final 0.5 ng/μL rhFAAH, 1 μM test compound, 1.25% ethanol or 1 μM PF-3845 (FAAH inhibitor), and 0.1% bovine serum albumin in Tris-EDTA buffer at pH 8.0). The positive control was LL-341001. The incubation was conducted at the room temperature. At 0, 5, 15, 30 and 60 minutes, an aliquot of 30 μL reaction mixtures was removed and mixed with 300 μL acetonitrile containing 5 ng/mL terfenadine and 10 ng/mL tolbutamide as internal standards to quench the reaction. The resulting mixture was centrifuged at 4000 rpm, 4° C. for 15 minutes, and 100 μL supernatant was ready for LC-MS/MS analysis to measure the formation of acid metabolite.
Acquity Ultra Performance LC system from Waters was used for sample analysis. The chromatography was performed on a reverse phase Kinetex 2.6 μm C18 column, 2.1×30 mm, 100 Å. The mobile phase A comprised of 0.1% formic acid in water and mobile phase B comprised of 0.1% formic acid in acetonitrile with a 2-min run time at the flow rate of 0.8 mL/min for the acid metabolite from positive control or a 1.5 min run time at the flow rate of 0.9 mL/min for the acid metabolite of test compounds. The mass spectrometer (API-5500 and API Q Trap 4000 Applied Biosystems/MDS SCIEX Instruments, Framingham, MA, USA) was operated under ESI positive or negative ion MRM mode.
The formation of acid metabolite was monitored and quantified using one calibration point of 1 μM. The observed rate constant (ke) for the acid metabolite formation was calculated by plotting the metabolite concentration versus time of incubation with the slope being ke and is shown in Table 1.

[4] = tissue distribution (TD) assay in mouse, brain and plasma; type: in vivo, male C57BL/6 mouse; settings: for AUC: male, C57BL/6, mouse, plasma, po, 100 ug/kg; for Brain AUC: single PO 100 μg/kg, male C57BL/6 mouse, AUC 0-24 hr
[5] = brain and plasma concentration in rat cuprizone model after 21 days repeat administration; type: in vivo; settings: 21 days repeat administration 30 or 100 μg/kg, 4 hours post-final dose
Experimental: In vivo brain exposure of active compound compared to prodrug was assessed via tissue distribution (TD) assay in mouse and rat cuprizone model, measured as brain exposure ratio of brain to plasma following thyromimetic treatment. […] Table 3 also depicts brain-to-plasma AUC ratio.

recombinant human FAAH = target: T2, recombinant human FAAH (Homo sapiens, UniProt O00519); test: FAAH inhibition, apparent IC50 with AMC substrate; type: biochemical; settings: 30 min preincubation with recombinant human FAAH and AMC; read-out: Apparent IC50s
T2 sequence (O00519 1-579): T1 sequence (O00519 1-579)

FAAH = target: T3, FAAH (Mus musculus, UniProt O08914); test: tissue distribution in mice after co-dosing ABX-002 with or without PFI or GFI; type: in vivo; settings: for Distribution: peripheral or global FAAH inhibitor
T3 construct: from tissue; host or cells: living mice (plasma, liver, brain)
T3 sequence (O08914 1-579): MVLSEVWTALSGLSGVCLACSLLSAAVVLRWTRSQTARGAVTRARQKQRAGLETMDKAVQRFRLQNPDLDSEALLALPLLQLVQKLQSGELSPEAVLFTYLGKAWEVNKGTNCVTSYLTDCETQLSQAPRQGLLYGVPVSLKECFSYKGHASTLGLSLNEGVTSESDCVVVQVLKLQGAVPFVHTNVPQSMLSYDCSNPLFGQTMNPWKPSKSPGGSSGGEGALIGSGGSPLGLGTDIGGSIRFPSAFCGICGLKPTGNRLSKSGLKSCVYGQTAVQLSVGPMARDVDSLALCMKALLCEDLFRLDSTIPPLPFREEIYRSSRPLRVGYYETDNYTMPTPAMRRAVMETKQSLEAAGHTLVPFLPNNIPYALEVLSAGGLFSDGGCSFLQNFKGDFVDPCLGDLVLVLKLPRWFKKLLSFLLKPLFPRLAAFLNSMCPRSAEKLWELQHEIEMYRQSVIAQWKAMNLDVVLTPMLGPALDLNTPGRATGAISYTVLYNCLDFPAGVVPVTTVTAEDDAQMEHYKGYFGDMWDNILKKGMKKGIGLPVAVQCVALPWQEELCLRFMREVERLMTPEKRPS
Experimental: The ability of globally-penetrant and peripherally-restricted FAAH inhibitors (GFI & PFI, respectively) to alter distribution of ABX-002 and ABX-002A was assessed.
Table 5 depicts the inhibition of active metabolite (LL-650177 or PF-044578454) in AUC in the plasma, liver, and brain after prodrug (ABX-002) co-dosing. Tissue distribution studies in mice confirm global & peripheral inhibition of FAAH.

[6] = after prodrug (ABX-002) co-dosing, mice

SMILES	AUC [4]	Brain AUC [4]	IC50 (recombinant human FAAH)	Distribution (FAAH)	further results
CNC(=O)COc1cc(Cl)c(Cc2ccc(O)c(C(C)C)c2F)c(Cl)c1 [Compound 31]	18.8 ng·h/mL	10.9 ng·h/mL	–	–	expression of Hr, Dio3, Klf9 in brain [1]: increases expression of Hr, Dio3, Klf9; expression of T3-responsive genes in brain [2]: expression increase was confirmed; ke (observed rate constant for the acid metabolite formation) [3]: A (A = ke is more than or equal to 0.1)
CC(C)c1c(O)ccc(Cc2c(Cl)cc(OCC(=O)O)cc2Cl)c1F [LL-341070A]	35.8 ng·h/mL	73.9 ng·h/mL	–	–	brain exposure compared to prodrug LL-341070 [5]: enhanced brain exposure
O=C(Nc1cccnn1)N1CCC(=Cc2cccc(Oc3ccc(C(F)(F)F)cn3)c2)CC1 [PF-04457845]	–	–	3 nM	Global	inhibition of active metabolite AUC, Brain (FAAH; [6]): 83%; inhibition of active metabolite AUC, Liver (FAAH; [6]): 94%; inhibition of active metabolite AUC, Plasma (FAAH; [6]): 94%
NC(=O)c1cccc(-c2cc(OC(=O)NC3CCCCC3)ccc2O)c1 [URB937]	–	–	69 nM	Peripheral	–
